Source: US9999222B2, “Herbicidal combination comprising azines” (BASF SE, priority 2014, dated 2018)
Several values for one entry are separate records, joined by “and”; a condition that tells them apart may be missing. Equal values may be shown once.

Legend:
Experiment in all cases: Greenhouse test, pre-emergence treatment
LOLMU = assay type: in vivo, Lolium multiflorum; conditions: Lolium multiflorum, pre-emergence, 480 h, pre-emergence, 20 DAT, read-out: observed % activity 20 DAT
Summary of the method: (§1)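 Damage was rated on a 0-100 scale, with 100 meaning no emergence or full destruction of aerial parts. Observed combination effects were set against the additive Colby expectation E=X+Y−(X·Y/100). Spray liquor was water-based, from 10% emulsion concentrates, applied pre-emergence right after sowing in loamy sand (about 3.0% humus). Plants were held at 10-25 °C or 20-35 °C for 2 to 4 weeks.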

SETFA = assay type: in vivo, Setaria faberi; conditions: 20 DAT
Summary of the method: as §1

VIOAR = assay type: in vivo, Viola arvensis; conditions: use rate 2 g ai/ha, 20 DAT
Source text: The culture containers used were plastic flowerpots containing loamy sand with approximately 3.0% of humus as the substrate. The seeds of the test plants were sown separately for each species.
For the pre-emergence treatment, the active ingredients, which had been suspended or emulsified in water, were applied directly after sowing by means of finely distributing nozzles. The containers were irrigated gently to promote germination and growth and subsequently covered with transparent plastic hoods until the plants had rooted. This cover caused uniform germination of the test plants, unless this had been impaired by the active ingredients.
Depending on the species, the plants were kept at 10-25° C. or 20-35° C., respectively.
The test period extended over 2 to 4 weeks. During this time, the plants were tended, and their response to the individual treatments was evaluated.
Evaluation was carried out using a scale from 0 to 100. 100 means no emergence of the plants, or complete destruction of at least the aerial moieties, and 0 means no damage, or normal course of growth. A moderate herbicidal activity is given at values of at least 60, a good herbicidal activity is given at values of at least 70, and a very good herbicidal activity is given at values of at least 85.
The respective stated components a and b, and if appropriate, c were formulated as a 10% by weight strength emulsion concentrate and, with addition of the amount of solvent system, introduced into the spray liquor used for applying the active compound.
In the examples, the solvent used was water.
In the examples below, using the method of S. R. Colby (1967) “Calculating synergistic and antagonistic responses of herbicide combinations”, Weeds 15, p. 22ff., the value E, which is expected if the activity of the individual active compounds is only additive, was calculated. E=X+Y−(X·Y/100) where • X=percent activity using active compound a at an application rate A; • Y=percent activity using active compound b at an application rate B; • E=expected activity (in %) by a+b at application rates A+B.
If the value found experimentally is higher than the value E calculated according to Colby, a synergistic effect is present.

ALOMY = assay type: in vivo, Alopecurus myosuroides; conditions: pre-emergence, pre-emergence, 20 DAT
Summary of the method: as §1

ECHCG = assay type: in vivo, Echinocloa crus-galli; conditions: Echinochloa crus-galli, 480 h, 20 DAT, read-out: observed % activity 20 DAT
Summary of the method: as §1

GERPU = assay type: in vivo, Geranium pusillum; conditions: Geranium pusillum, pre-emergence, 480 h, pre-emergence, 20 DAT, read-out: observed % activity 20 DAT
Summary of the method: as §1

PHACA = assay type: in vivo, Phalaris canariensis; conditions: Phalaris canariensis, pre-emergence, 480 h, pre-emergence, 20 DAT, read-out: observed % activity 20 DAT
Summary of the method: as §1

POLCO = assay type: in vivo, Polygonum convolvulus; conditions: pre-emergence, 20 DAT
Summary of the method: as §1

KCHSC = assay type: in vivo, Kochia scoparia; conditions: pre-emergence, 20 DAT
Summary of the method: as §1

## CC(C)(F)c1nc(N)nc(Nc2c(F)c(F)cc(F)c2F)n1 [compound 2, 6-(1-Fluoro-1-methyl-ethyl)-N4-(2,3,5,6-tetrafluorophenyl)-1,3,5-triazine-2,4-diamine]
LOLMU; LOLMU, use rate 1 g ai/ha
  inhibition at 1 g/ha: 40%
LOLMU; LOLMU, use rate 2 g ai/ha
  inhibition at 2 g/ha: 80%
LOLMU; LOLMU, use rate 4 g ai/ha
  inhibition at 4 g/ha: 95%
LOLMU; use rate 1 g ai/ha
  pest or weed control at 1 g/ha: 20%
LOLMU; use rate 2 g ai/ha
  pest or weed control at 2 g/ha: 80%
LOLMU; use rate 4 g ai/ha
  pest or weed control at 4 g/ha: 95%
SETFA; Setaria faberi, 480 h, SETFA, use rate 1 g ai/ha, read-out: observed % activity 20 DAT
  inhibition at 1 g/ha: 80%
SETFA; Setaria faberi, 480 h, SETFA, use rate 2 g ai/ha, read-out: observed % activity 20 DAT
  inhibition at 2 g/ha: 95%
SETFA; Setaria faberi, 480 h, SETFA, use rate 4 g ai/ha, read-out: observed % activity 20 DAT
  inhibition at 4 g/ha: 95%
SETFA; use rate 2 g ai/ha
  observed % activity 20 DAT: 75% and 65%
VIOAR
  observed % activity 20 DAT: 50%
ALOMY; Alopecurus myosuroides, 480 h, ALOMY, use rate 1 g ai/ha, read-out: observed % activity 20 DAT
  inhibition at 1 g/ha: 60%
ALOMY; Alopecurus myosuroides, 480 h, ALOMY, use rate 2 g ai/ha, read-out: observed % activity 20 DAT
  inhibition at 2 g/ha: 70%
ALOMY; Alopecurus myosuroides, 480 h, ALOMY, use rate 4 g ai/ha, read-out: observed % activity 20 DAT
  inhibition at 4 g/ha: 90%
ALOMY; Alopecurus myosuroides, 480 h, use rate 1 g ai/ha, read-out: observed % activity 20 DAT
  pest or weed control at 1 g/ha: 45%
ALOMY; Alopecurus myosuroides, 480 h, use rate 2 g ai/ha, read-out: observed % activity 20 DAT
  pest or weed control at 2 g/ha: 75%
ALOMY; Alopecurus myosuroides, 480 h, use rate 4 g ai/ha, read-out: observed % activity 20 DAT
  pest or weed control at 4 g/ha: 90%
ALOMY; ALOMY, use rate 4 g ai/ha
  observed % activity 20 DAT: 95%
ALOMY; ALOMY, use rate 8 g ai/ha
  observed % activity 20 DAT: 50% and 80% and 95%
ECHCG; ECHCG, use rate 1 g ai/ha
  inhibition at 1 g/ha: 65%
ECHCG; ECHCG, use rate 2 g ai/ha
  inhibition at 2 g/ha: 98%
ECHCG; use rate 1 g ai/ha
  pest or weed control at 1 g/ha: 65%
GERPU; use rate 1 g ai/ha
  pest or weed control at 1 g/ha: 0%
GERPU; use rate 2 g ai/ha
  pest or weed control at 2 g/ha: 0%
PHACA; PHACA, use rate 1 g ai/ha
  inhibition at 1 g/ha: 20%
PHACA; PHACA, use rate 2 g ai/ha
  inhibition at 2 g/ha: 70%
PHACA; use rate 1 g ai/ha
  pest or weed control at 1 g/ha: 20%
PHACA; use rate 4 g ai/ha
  pest or weed control at 4 g/ha: 95%
PHACA; use rate 8 g ai/ha
  pest or weed control at 8 g/ha: 85%
POLCO; Fallopia convolvulus, 480 h, use rate 1 g ai/ha, read-out: observed % activity 20 DAT
  pest or weed control at 1 g/ha: 60%
POLCO; Fallopia convolvulus, 480 h, use rate 2 g ai/ha, read-out: observed % activity 20 DAT
  pest or weed control at 2 g/ha: 70%
POLCO; Fallopia convolvulus, 480 h, POLCO, use rate 2 g ai/ha, read-out: observed % activity 20 DAT
  inhibition at 2 g/ha: 70%
POLCO; Fallopia convolvulus, 480 h, POLCO, use rate 4 g ai/ha, read-out: observed % activity 20 DAT
  inhibition at 4 g/ha: 95%
POLCO; POLCO, use rate 1 g ai/ha
  observed % activity 20 DAT: 15%
KCHSC; Bassia scoparia, 480 h, use rate 1 g ai/ha, read-out: observed % activity 20 DAT
  pest or weed control at 1 g/ha: 0%
KCHSC; Bassia scoparia, 480 h, use rate 2 g ai/ha, read-out: observed % activity 20 DAT
  pest or weed control at 2 g/ha: 50%
KCHSC; Bassia scoparia, 480 h, KCHSC, use rate 1 g ai/ha, read-out: observed % activity 20 DAT
  inhibition at 1 g/ha: 45%
KCHSC; Bassia scoparia, 480 h, KCHSC, use rate 2 g ai/ha, read-out: observed % activity 20 DAT
  inhibition at 2 g/ha: 80%
KCHSC; Bassia scoparia, 480 h, KCHSC, use rate 4 g ai/ha, read-out: observed % activity 20 DAT
  inhibition at 4 g/ha: 90%
KCHSC; Bassia scoparia, 480 h, KCHSC, use rate 8 g ai/ha, read-out: observed % activity 20 DAT
  inhibition at 8 g/ha: 80%
KCHSC; KCHSC, use rate 8 g ai/ha
  observed % activity 20 DAT: 95%
